Patent publication US10967060B2, “Synergistic combination of immunologic inhibitors for the treatment of cancer” (The University of Chicago, priority 2012, dated 2021)

Test system: B16-SIY cells
Assay: Unaffected fraction (synergy) analysis of tumor growth inhibition of combination therapies
Assay type: in vivo, C57BL/6 mice
Conditions: for Predicted TGI: expected for purely additive effect
Protocol: Treatment was initiated on day 4 post tumor inoculation with the following regimens for each drug. αCTLA-4 antibody (clone UC10-4F10-11, Bio-X-Cell) was given i.p. on day 4, 7 and 10 at a dose of 100 μg/mouse. αPD-L1 antibody (clone 10F.9G2, Bio-X-Cell) was given i.p. (100 μg/mouse) every other day starting on day 4 ending on day 16 post tumor inoculation. IDOi (INCB23843, Incyte Corporation) was dissolved in 0.5% methylcellulose and administered at 300 mg/kg po QD on a 5 days on/2 days off schedule starting on day 4. In the case of functional experiments with an earlier endpoint, treatment regimens were carried out as described until the day of T cell analysis. A comparison between IDOi and IDOc (INCB24360, Incyte Corporation) was perfomed according to the treatment regime described above. Tumor outgrowth was followed starting day 7 onwards and is depicted in combination with anti-CTLA4 (FIG. 18A) or anti-PD-L1 (FIG. 18B). N=5 mice per group, and a two-way Anova test was used to determine significance between the groups.
Treatment was administered in the same fashion as described for FIG. 9, with the exception that IDOi (INCB23843) was replaced by IDOc (INCB24360) in the indicated groups.
Synergy analysis was performed with day 15 data and with day 23 data. Actual tumor growth inhibition (TGI) is the experimental TGI seen in this experiment for the combinations, and predicted TGI is the TGI that would have been expected for a purely additive combination effect from the performance of the individual agents in this experiment. Actual TGIs higher than predicted TGIs reflect better than additive (synergistic) data.

[1] = Day 15 (end of dosing), in combination with anti CTLA4
[2] = Day 15 (end of dosing), in combination with antiPDL1
[3] = Day 23 (last day of vehicles), in combination with anti CTLA4
[4] = Day 23 (last day of vehicles), in combination with antiPDL1

NS(=O)(=O)NCCNc1nonc1/C(=N/O)Nc1ccc(F)c(Br)c1 [IDOc]
Actual TGI [1]: 74%
Predicted TGI [1]: 66%
Actual TGI [2]: 81%
Predicted TGI [2]: 24%
Actual TGI [3]: 93%
Predicted TGI [3]: 65%
Actual TGI [4]: 82%
Predicted TGI [4]: 35%
